ChEMBL document CHEMBL1136296, “3-cyanoindole-based inhibitors of inosine monophosphate dehydrogenase: synthesis and initial structure-activity relationships” (Bioorg Med Chem Lett, 2003)

Key:
CCRF-CEM = test: cells; details: Homo sapiens
Description: Inhibition of CEM (human leukemia) cell proliferation.

[1] = molecular target: Inosine-5'-monophosphate dehydrogenase 2 (Homo sapiens, UniProt P12268); test: Inhibitory activity tested against inosine-5'-monophosphate dehydrogenase 2 (IMPDH-II) enzyme

Compound | IC50 (CCRF-CEM) [µM] | IC50 [1] [µM]
Cn1cc(C#N)c2ccc(Nc3ncc(-c4ccccc4CNC(=O)OC4CCOC4)o3)cc21 (configuration not stated) | > 10 | 0.42
COc1cc(Nc2ncc(-c3ccccc3N(C)C(=O)CN3CCOCC3)o2)ccc1-c1cnco1 | 0.52 | 
Cc1cccc(-c2cnc(Nc3ccc4c(C#N)cn(C)c4c3)o2)c1 | > 10 | 0.49
Cn1cc(C#N)c2ccc(Nc3ncc(-c4ccccc4CNC(=O)OCCC#N)o3)cc21 | > 10 | 0.42
COc1cc(NC(=O)Nc2cccc(C)c2)ccc1C#N |  | 0.29
COc1cc(Nc2ncc(-c3ccccc3)o2)ccc1C#N |  | 0.4
CC(=O)OCC(=O)N(C)c1ccccc1-c1cnc(Nc2ccc3c(C#N)cn(C)c3c2)o1 |  | 0.266
Cn1cc(C#N)c2ccc(Nc3ncc(-c4ccc(CN)cc4)o3)cc21 | 2.8 | 0.26
Cc1ccccc1-c1cnc(Nc2ccc3c(C#N)cn(C)c3c2)o1 |  | 0.44
Cn1cc(C#N)c2ccc(Nc3ncc(-c4ccccc4CN)o3)cc21 | 1.1 | 0.28
Cc1cccc(NC(=O)Nc2ccc3c(C#N)cn(C)c3c2)c1 |  | 0.67
Cn1cc(C#N)c2ccc(NC(=O)Nc3ccccc3)cc21 |  | 0.63
Cn1cc(C#N)c2ccc(Nc3ncc(-c4cccc(CNC(=O)OCCC#N)c4)o3)cc21 | > 10 | 0.24
Cn1cc(C#N)c2ccc(Nc3ncc(-c4cccc(CNC(=O)OC5CCOC5)c4)o3)cc21 (configuration not stated) | > 10 | 0.26
Cc1ccc(-c2cnc(Nc3ccc4c(C#N)cn(C)c4c3)o2)cc1 |  | > 0.55

Continued, values first:

IC50 (CCRF-CEM) [µM] | IC50 [1] [µM] | Compound
> 10 | 0.094 | CC(=O)NCc1ccc(-c2cnc(Nc3ccc4c(C#N)cn(C)c4c3)o2)cc1
5.3 | 0.13 | Cn1cc(C#N)c2ccc(Nc3ncc(-c4cccc(CNC(=O)c5ccccc5)c4)o3)cc21
 | 0.23 | Cc1ccc(NC(=O)Nc2ccc3c(C#N)cn(C)c3c2)cc1
> 10 | 0.1 | Cn1cc(C#N)c2ccc(Nc3ncc(-c4ccc(CNC(=O)c5ccccc5)cc4)o3)cc21
4.9 | 0.18 | Cn1cc(C#N)c2ccc(Nc3ncc(-c4ccc(CNC(=O)C(C)(C)C)cc4)o3)cc21
8 | 0.033 | Cn1cc(C#N)c2ccc(Nc3ncc(-c4ccccc4)o3)cc21
3.5 | 0.2 | Cn1cc(C#N)c2ccc(Nc3ncc(-c4cccc(NC(=O)c5ccccc5)c4)o3)cc21
0.49 | 0.011 | COc1cc(NC(=O)Nc2cccc(CNC(=O)O[C@H]3CCOC3)c2)ccc1-c1cnco1 [MERIMEPODIB]
 | 0.006 | CC[C@H](CC#N)OC(=O)NCc1cccc(NC(=O)Nc2ccc(C#N)c(OC)c2)c1
2.5 | 0.084 | Cn1cc(C#N)c2ccc(Nc3ncc(-c4cccc(CNC(=O)c5cccc6ccccc56)c4)o3)cc21
4.4 | 0.04 | Cn1cc(C#N)c2ccc(Nc3ncc(-c4cccc(CNC(=O)c5ccc6ccccc6c5)c4)o3)cc21
 | 0.016 | COc1cc(Nc2ncc(-c3ccccc3)o2)ccc1-c1cnco1
3.5 | 0.18 | Cn1cc(C#N)c2ccc(Nc3ncc(-c4cccc(CN)c4)o3)cc21
1.4 | 0.21 | CN(C)CCOC(=O)NCc1cccc(-c2cnc(Nc3ccc4c(C#N)cn(C)c4c3)o2)c1
